Source: publication PMC7316778 (Nature Communications, 2020)
“And” between values parts separate entries of the source, which are not always exact repeats. Identical values can stand only once. Like-named read-outs stand apart in the source and are kept apart here.

Key:
STK22D (TSSK1) = STK22D (TSSK1) (Homo sapiens, UniProt Q9BXA7); test: SelectScreen kinase assay; settings: 1 h, 1 μM WEL028, 1 h preincubation
Protocol: (§1) Selectivity profiling assays were performed by the Invitrogen SelectScreen™ Services. […] The concentration of ATP was selected to be equal to the KM, unless indicated otherwise.

NIM1K = NIM1K (Homo sapiens, UniProt Q8IY84); test: SelectScreen kinase assay
Protocol: as §1

FGFR3 K650E = FGFR3 K650E (Homo sapiens, UniProt P22607, K650E); test: SelectScreen kinase assay; settings: for Inhibition at 1 µM (%): FGFR3 K650E, ZLYTE, ATP Km app
FGFR3 K650E, sequence (P22607 23-806 K650E): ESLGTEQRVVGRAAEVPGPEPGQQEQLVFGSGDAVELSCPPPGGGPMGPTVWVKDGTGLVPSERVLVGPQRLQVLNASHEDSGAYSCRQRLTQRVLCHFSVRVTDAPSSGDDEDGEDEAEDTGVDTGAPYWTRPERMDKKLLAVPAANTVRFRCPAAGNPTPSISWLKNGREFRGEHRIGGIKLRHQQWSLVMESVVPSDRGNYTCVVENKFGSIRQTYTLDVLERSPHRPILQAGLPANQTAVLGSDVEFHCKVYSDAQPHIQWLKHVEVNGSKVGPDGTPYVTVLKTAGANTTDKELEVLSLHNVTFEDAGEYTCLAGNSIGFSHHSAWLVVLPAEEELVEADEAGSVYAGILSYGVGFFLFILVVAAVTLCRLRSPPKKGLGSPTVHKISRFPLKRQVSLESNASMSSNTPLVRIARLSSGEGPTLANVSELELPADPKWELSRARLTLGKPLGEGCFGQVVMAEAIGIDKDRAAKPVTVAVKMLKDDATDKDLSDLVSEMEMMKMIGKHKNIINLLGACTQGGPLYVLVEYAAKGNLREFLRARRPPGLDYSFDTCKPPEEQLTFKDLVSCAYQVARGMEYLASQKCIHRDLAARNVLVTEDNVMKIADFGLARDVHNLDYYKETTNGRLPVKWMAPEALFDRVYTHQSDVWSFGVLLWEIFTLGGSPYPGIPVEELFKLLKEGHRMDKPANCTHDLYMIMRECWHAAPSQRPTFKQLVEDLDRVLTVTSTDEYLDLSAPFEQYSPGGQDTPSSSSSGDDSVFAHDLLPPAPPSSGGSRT
Protocol: as §1

NTRK1 (TRKA) = NTRK1 (TRKA) (Homo sapiens, UniProt P04629); test: SelectScreen kinase assay
Protocol: as §1

[1] = tested on: FES^S700C HL-60 neutrophils; test: Neutrophil oxidative burst assay (NBT); format: cell-based, human
PLK2 = PLK2 (Homo sapiens, UniProt Q9NYY3); test: SelectScreen kinase assay
PLK2, sequence (Q9NYY3 whole entry): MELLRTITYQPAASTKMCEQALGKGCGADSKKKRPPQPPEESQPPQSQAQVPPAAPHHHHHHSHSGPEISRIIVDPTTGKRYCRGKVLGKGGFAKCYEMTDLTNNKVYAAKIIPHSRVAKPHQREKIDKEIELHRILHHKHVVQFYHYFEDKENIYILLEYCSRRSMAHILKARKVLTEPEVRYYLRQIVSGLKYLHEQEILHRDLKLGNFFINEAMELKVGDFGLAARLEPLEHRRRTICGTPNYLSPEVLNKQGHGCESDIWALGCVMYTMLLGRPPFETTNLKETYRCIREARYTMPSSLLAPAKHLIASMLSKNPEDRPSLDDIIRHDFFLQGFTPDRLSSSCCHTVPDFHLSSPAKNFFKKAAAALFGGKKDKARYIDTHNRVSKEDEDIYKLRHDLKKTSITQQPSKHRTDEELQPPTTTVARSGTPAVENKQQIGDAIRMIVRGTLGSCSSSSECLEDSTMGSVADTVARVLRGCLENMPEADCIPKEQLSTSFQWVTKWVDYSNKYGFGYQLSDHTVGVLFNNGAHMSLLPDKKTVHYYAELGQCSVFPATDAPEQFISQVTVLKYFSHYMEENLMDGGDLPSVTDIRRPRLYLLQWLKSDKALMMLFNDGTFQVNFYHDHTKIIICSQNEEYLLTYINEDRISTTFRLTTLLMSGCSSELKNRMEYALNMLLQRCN
Protocol: as §1

CHUK (IKK alpha) = CHUK (IKK alpha) (Homo sapiens, UniProt O15111); test: SelectScreen kinase assay
CHUK (IKK alpha), sequence (O15111 whole entry): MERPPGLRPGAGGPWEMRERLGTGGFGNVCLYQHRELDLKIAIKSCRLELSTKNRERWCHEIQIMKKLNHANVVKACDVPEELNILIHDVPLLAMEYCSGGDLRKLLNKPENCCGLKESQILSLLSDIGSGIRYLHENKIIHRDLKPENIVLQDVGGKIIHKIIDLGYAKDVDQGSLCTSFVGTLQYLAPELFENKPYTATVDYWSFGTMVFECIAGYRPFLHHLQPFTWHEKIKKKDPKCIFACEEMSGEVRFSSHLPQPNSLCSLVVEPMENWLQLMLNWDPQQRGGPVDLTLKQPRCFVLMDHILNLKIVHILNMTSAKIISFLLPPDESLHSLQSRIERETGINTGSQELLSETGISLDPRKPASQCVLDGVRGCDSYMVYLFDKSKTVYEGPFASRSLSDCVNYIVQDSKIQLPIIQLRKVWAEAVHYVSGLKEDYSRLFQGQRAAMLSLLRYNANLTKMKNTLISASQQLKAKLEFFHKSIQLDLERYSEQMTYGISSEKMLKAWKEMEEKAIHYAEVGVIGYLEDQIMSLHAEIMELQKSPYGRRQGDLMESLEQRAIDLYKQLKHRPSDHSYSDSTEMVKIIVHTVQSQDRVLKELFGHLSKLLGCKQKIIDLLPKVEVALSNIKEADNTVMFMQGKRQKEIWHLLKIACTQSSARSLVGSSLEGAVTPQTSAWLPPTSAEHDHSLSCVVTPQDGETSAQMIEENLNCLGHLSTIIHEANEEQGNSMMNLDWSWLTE
Protocol: as §1

SIK1 = SIK1 (Homo sapiens, UniProt P57059); test: SelectScreen kinase assay
SIK1, sequence (P57059 whole entry): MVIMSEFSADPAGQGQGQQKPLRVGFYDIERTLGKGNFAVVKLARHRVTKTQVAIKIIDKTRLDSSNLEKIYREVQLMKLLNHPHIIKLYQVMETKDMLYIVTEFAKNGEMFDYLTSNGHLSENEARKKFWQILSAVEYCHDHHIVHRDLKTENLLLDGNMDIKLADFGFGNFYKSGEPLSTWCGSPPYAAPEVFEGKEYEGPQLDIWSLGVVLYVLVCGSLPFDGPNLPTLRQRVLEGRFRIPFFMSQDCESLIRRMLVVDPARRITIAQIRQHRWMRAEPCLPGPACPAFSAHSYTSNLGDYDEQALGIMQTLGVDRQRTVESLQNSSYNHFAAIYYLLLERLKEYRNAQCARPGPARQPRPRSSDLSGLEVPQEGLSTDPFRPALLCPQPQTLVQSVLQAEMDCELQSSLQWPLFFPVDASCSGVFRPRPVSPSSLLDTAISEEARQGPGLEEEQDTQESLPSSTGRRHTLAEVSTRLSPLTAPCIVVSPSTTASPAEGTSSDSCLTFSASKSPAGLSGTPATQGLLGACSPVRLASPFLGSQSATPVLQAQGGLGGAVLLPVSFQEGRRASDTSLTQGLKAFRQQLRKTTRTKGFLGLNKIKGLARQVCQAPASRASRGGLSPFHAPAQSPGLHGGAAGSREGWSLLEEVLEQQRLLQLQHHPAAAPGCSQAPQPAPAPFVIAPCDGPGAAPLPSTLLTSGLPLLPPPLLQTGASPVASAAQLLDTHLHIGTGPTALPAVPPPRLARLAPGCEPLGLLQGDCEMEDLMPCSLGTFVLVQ
Protocol: as §1

EPHA8 = EPHA8 (Homo sapiens, UniProt P29322); test: SelectScreen kinase assay
Protocol: as §1

MATK (HYL) = MATK (HYL) (Homo sapiens, UniProt P42679); test: SelectScreen kinase assay
Protocol: as §1

CDK18/cyclin Y = CDK18/cyclin Y (Homo sapiens, UniProt Q07002); test: SelectScreen kinase assay; settings: for Inhibition at 1 µM (%): CDK18/cyclin Y, ZLYTE, ATP Km app
Protocol: as §1

EPHA5 = EPHA5 (Homo sapiens, UniProt P54756); test: SelectScreen kinase assay
EPHA5, sequence (P54756 25-1037): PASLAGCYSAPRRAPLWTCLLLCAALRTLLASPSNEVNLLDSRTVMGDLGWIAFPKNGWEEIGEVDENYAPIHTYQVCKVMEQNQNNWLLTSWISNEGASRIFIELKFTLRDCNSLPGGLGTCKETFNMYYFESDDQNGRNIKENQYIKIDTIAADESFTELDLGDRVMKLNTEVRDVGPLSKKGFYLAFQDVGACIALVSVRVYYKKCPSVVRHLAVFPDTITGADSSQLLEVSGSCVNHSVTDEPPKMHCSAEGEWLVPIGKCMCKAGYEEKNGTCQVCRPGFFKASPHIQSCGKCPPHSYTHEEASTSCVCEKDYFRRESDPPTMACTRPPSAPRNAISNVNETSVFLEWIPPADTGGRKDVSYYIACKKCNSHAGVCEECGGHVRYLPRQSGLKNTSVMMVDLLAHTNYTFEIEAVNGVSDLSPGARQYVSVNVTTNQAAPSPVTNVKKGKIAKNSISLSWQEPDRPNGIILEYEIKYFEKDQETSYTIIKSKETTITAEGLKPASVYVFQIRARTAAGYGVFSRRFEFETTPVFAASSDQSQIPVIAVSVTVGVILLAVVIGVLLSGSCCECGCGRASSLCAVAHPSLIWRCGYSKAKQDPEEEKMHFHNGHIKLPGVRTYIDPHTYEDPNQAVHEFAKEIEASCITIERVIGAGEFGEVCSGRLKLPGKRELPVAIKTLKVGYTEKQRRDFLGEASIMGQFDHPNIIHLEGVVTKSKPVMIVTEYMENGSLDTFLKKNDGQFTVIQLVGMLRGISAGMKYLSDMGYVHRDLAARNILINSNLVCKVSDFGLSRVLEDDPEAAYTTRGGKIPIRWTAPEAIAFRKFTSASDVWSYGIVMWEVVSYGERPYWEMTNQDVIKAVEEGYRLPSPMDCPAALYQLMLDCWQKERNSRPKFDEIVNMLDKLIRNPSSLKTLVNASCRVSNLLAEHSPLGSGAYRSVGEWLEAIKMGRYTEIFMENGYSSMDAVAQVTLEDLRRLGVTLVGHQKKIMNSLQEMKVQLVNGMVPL
Protocol: as §1

ROCK1 = ROCK1 (Homo sapiens, UniProt Q13464); test: SelectScreen kinase assay
Protocol: as §1

MLK4 = MLK4 (Homo sapiens, UniProt Q5TCX8); test: SelectScreen kinase assay
Protocol: as §1

STK3 (MST2) = STK3 (MST2) (Homo sapiens, UniProt Q13188); test: SelectScreen kinase assay
Protocol: as §1

PRKCE (PKC epsilon) = PRKCE (PKC epsilon) (Homo sapiens, UniProt Q02156); test: SelectScreen kinase assay
PRKCE (PKC epsilon), sequence (Q02156 whole entry): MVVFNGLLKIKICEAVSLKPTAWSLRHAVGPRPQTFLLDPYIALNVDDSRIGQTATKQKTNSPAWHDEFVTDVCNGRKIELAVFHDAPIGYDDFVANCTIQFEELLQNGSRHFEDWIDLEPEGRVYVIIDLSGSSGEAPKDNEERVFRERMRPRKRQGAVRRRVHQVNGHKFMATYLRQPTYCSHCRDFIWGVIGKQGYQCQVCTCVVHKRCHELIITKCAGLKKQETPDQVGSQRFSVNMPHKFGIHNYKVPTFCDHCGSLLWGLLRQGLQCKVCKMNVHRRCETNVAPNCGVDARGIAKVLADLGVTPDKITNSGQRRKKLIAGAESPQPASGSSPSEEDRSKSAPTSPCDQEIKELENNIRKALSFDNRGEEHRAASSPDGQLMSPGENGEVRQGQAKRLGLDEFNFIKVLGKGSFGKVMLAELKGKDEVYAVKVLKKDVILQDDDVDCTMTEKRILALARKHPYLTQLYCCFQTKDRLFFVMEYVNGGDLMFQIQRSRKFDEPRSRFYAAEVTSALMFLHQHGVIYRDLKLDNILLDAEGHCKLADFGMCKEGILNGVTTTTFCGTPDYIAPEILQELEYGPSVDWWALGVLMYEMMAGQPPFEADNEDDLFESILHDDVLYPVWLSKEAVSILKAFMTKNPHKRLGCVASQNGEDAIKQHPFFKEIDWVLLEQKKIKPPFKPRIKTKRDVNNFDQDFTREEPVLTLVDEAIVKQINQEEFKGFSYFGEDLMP
Protocol: as §1

STK22B (TSSK2) = target: T1, STK22B (TSSK2) (Homo sapiens, UniProt Q96PF2); test: SelectScreen kinase assay
T1 sequence (Q96PF2 1-358): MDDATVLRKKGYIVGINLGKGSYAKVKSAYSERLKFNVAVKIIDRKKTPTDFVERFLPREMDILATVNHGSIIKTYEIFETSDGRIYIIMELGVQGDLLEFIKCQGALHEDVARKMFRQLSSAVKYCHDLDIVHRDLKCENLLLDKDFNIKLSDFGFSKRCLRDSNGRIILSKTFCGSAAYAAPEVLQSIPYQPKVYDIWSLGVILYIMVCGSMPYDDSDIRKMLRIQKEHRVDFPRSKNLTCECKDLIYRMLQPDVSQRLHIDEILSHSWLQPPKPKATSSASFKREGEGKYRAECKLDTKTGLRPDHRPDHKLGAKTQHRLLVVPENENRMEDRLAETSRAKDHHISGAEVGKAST
Protocol: as §1

ADCK3 = ADCK3 (Homo sapiens, UniProt Q8NI60); test: SelectScreen kinase assay
Protocol: as §1

CAMK1 (CaMK1) = CAMK1 (CaMK1) (Homo sapiens, UniProt Q14012); test: SelectScreen kinase assay; settings: 1 h, 1 μM WEL028, 1 h preincubation
Protocol: as §1

[2] = 1 h, 1 μM WEL028, 1 h preincubation
[3] = read-out: Inhibition at 1 µM (%)
[4] = 1 µM, ZLYTE, ATP Km app, listed as WEL028, 1 µM

In the case of `C#CCOc1ccc(Nc2ncc(Cl)c(Nc3ccccc3NC(=O)C=C)n2)c(OC)c1` [Compound 6], the inhibition at 1 µM (STK22D (TSSK1)) is reported as 19%, the inhibition at 1 µM (NIM1K; [2]) is reported as 2% and the inhibition at 1 µM (NIM1K; read-out: Inhibition at 1 µM (%), NIM1K, 1 µM, ZLYTE, ATP Km app) is reported as 3%. The inhibition at 1 µM (FGFR3 K650E; [2]) was 8%, the “Inhibition at 1 µM (%)” value (FGFR3 K650E) was 12% and the “Inhibition at 1 µM (%)” value (FGFR3 K650E; listed as WEL028, 1 µM) was 4%. The inhibition at 1 µM (NTRK1 (TRKA); [2]) was 17%, the “Inhibition at 1 µM (%)” value (NTRK1 (TRKA); NTRK1 (TRKA), 1 µM, ZLYTE, ATP Km app, listed as WEL028, 1 µM) was 16% and the inhibition at 1 µM (NTRK1 (TRKA); read-out: Inhibition at 1 µM (%), NTRK1 (TRKA), 1 µM, ZLYTE, ATP Km app) was 17%. For the same molecule, the “Formazan-positive cells (%)” value ([1]; 100 nM, Supplementary Figure 12f, individual replicates, listed as WEL028) was 79.976% and 78.7671% and 73.0614%, the “Percentage of formazan-positive cells” value ([1]; WEL028 prior to PMA stimulation) was “did not affect” and the “Inhibition (%)” value (PLK2; 1 μM WEL028, 1 h preincubation) was 12%. The “Inhibition at 1 µM (%)” value (PLK2; PLK2, 1 µM, ZLYTE, ATP Km app, listed as WEL028, 1 µM) was 15%, the inhibition at 1 µM (PLK2; read-out: Inhibition at 1 µM (%), PLK2, 1 µM, ZLYTE, ATP Km app) was 8% and the inhibition at 1 µM (CHUK (IKK alpha); [2]) was 7%. For the same molecule, the “Inhibition at 1 µM (%)” value (CHUK (IKK alpha); CHUK (IKK alpha), 1 µM, Adapta, ATP Km app, listed as WEL028, 1 µM) was 12% and 3%, the “Inhibition (%)” value (SIK1; 1 μM WEL028, 1 h preincubation) was 5% and the “Inhibition at 1 µM (%)” value (SIK1; 1 µM, LanthaScreen Binding, listed as WEL028, 1 µM) was 5%. For the same molecule, the inhibition at 1 µM (SIK1; read-out: Inhibition at 1 µM (%), 1 µM, LanthaScreen Binding) was 4%, the inhibition at 1 µM (EPHA8; 1 h) was -7% and the inhibition at 1 µM (EPHA8; [3]) was -7%. It also gave an inhibition at 1 µM (MATK (HYL); 1 h) of 8%, an inhibition at 1 µM (MATK (HYL); [3]) of 8% and an inhibition at 1 µM (CDK18/cyclin Y; [2]) of 1%. The “Inhibition at 1 µM (%)” value (CDK18/cyclin Y) was 3%, the “Inhibition at 1 µM (%)” value (CDK18/cyclin Y; listed as WEL028, 1 µM) was -1% and the “Inhibition (%)” value (EPHA5; 1 μM WEL028, 1 h preincubation) was 0%. The “Inhibition at 1 µM (%)” value (EPHA5; EPHA5, 1 µM, ZLYTE, ATP Km app, listed as WEL028, 1 µM) was 3% and -2%, the “Inhibition at 1 µM (%)” value (ROCK1; [4]) was -6% and 0% and the inhibition at 1 µM (ROCK1; [2]) was -3%. For the same molecule, the inhibition at 1 µM (MLK4; [2]) was 3%, the “Inhibition at 1 µM (%)” value (MLK4; MLK4, 1 µM, LanthaScreen Binding, listed as WEL028, 1 µM) was 6% and 0% and the “Inhibition at 1 µM (%)” value (STK3 (MST2); 1 µM, ZLYTE, ATP Km app) was 15%. The inhibition at 1 µM (STK3 (MST2); [2]) was 5%, the inhibition at 1 µM (PRKCE (PKC epsilon); [2]) was -13% and the “Inhibition at 1 µM (%)” value (PRKCE (PKC epsilon); PRKCE (PKC epsilon), 1 µM, ZLYTE, ATP Km app, listed as WEL028, 1 µM) was -15% and -11%. For the same molecule, the “Inhibition at 1 µM (%)” value (STK22B (TSSK2); [4]) was 17%, the inhibition at 1 µM (STK22B (TSSK2); [2]) was 18% and the inhibition at 1 µM (STK22B (TSSK2); read-out: Inhibition at 1 µM (%), 1 µM, ZLYTE, ATP Km app) was 18%. The inhibition at 1 µM (ADCK3; 1 h) was 2%, the inhibition at 1 µM (ADCK3; [3]) was 2% and the inhibition at 1 µM (CAMK1 (CaMK1)) was 6%.
